Test results published in ChEMBL document CHEMBL4665668, “Design and development of molecular hybrids of 2-pyridylpiperazine and 5-phenyl-1,3,4-oxadiazoles as potential multifunctional agents to treat Alzheimer's disease” (Eur J Med Chem, 2019).
Calls of active or inactive are those of the source. The calls are words filed in the database; no cut-off is given here.

What was measured:
Rattus norvegicus [1] = test: Antioxidant activity in scopolamine-induced Wistar rat model of amnesia assessed as decrease in MDA level at 2.5 to 10 mg/kg, po pretreated for 7 days followed by scopolamine challenge and measured after 30 mins […]; format: functional, organism-based; conditions: dose mg/kg 2.5-10, time 7.0 day
[2] = target: Amyloid-beta precursor protein (Homo sapiens) (UniProt P05067); test: Inhibition of amyloid beta (1 to […]) (unknown origin) self-induced aggregation after 48 hrs by Thioflavin T based fluorometric assay; conditions: dose microM 5-20, time 48.0 hrs
Rattus norvegicus [3] = test: Improvement in learning and spatial memory in icv infused amyloid beta (1 to 42)-induced rat model of Alzheimer's disease assessed as increase in number of platform crossing at 10 mg/kg, po administered daily for 7 days starting from 7 days post surgery and measured after 6 days by Morris water maze test; format: functional, organism-based; conditions: time 13.0 day
SH-SY5Y = test: Neuroprotective activity against amyloid beta (1 to 42)-induced oxidative stress in human SH-SY5Y cells assessed as effect on cell viability at 10 to 80 uM measured after 24 hrs by MTT assay (reference value: 61 %); format: functional; conditions: dose microM 10-80
[4] = AUC (0 to 24 hrs) in Wistar rat at 10 mg/kg, po measured up to 72 hrs by HPLC analysis; format: ADME, organism-based; parameters: route oral, dose 10 mg/kg, time 72 hrs; conditions: in vivo
[5] = Cmax in Wistar rat at 10 mg/kg, po measured up to 72 hrs by HPLC analysis; format: ADME, organism-based; parameters: route oral, time 72 hrs, dose 10 mg/kg; conditions: in vivo
Rattus norvegicus [6] = test: Antioxidant activity in scopolamine-induced Wistar rat model of amnesia assessed as increase in SOD level at 2.5 to 10 mg/kg, po pretreated for 7 days followed by scopolamine challenge and measured after 30 mins […]; format: functional, organism-based; conditions: dose mg/kg 2.5-10, time 7.0 day
[7] = Acute toxicity in Wistar rat assessed as abnormal signs at 100 to 500 mg/kg, po measured up to 14 days by OCED guideline method; format: organism-based; conditions: in vivo, 336 h, dose 100-500 mg/kg, time 14 day
[8] = target: Amyloid-beta precursor protein (Homo sapiens) (UniProt P05067); test: Inhibition of amyloid beta (unknown origin) self aggregation assessed as maximum peak height at 10 uM after 10 days by atomic force microscopy; conditions: time 10.0 day
[9] = Tmax in Wistar rat at 10 mg/kg, po measured up to 72 hrs by HPLC analysis; format: ADME, organism-based; conditions: in vivo
Rattus norvegicus [10] = test: Ex vivo inhibition of AChE in brain of scopolamine-induced Wistar rat model of amnesia at 5 to 10 mg/kg, po pretreated for 7 days followed by scopolamine challenge and measured after 30 mins using acetylthiocholine iodide as substrate by Ellman's method; format: functional, organism-based; conditions: dose mg/kg 5-10, time 7.0 day
Acetylcholinesterase [11] = target: T1, Acetylcholinesterase (Homo sapiens, UniProt P22303); test: Mixed type inhibition of human erythrocytes AChE using varying levels of acetylthiocholine iodide substrate by Dixon plot analysis; format: tissue-based, Erythrocyte
[12] = MRT in Wistar rat at 10 mg/kg, po measured up to 72 hrs by HPLC analysis; format: ADME, organism-based; conditions: in vivo
Acetylcholinesterase [13] = target: T1, Acetylcholinesterase; test: Mixed type inhibition of human erythrocytes AChE assessed as increase in Km using varying levels of acetylthiocholine iodide substrate by Lineweaver-Burk plot analysis; format: tissue-based; conditions: Erythrocyte
[14] = target: Amyloid-beta precursor protein (Homo sapiens) (UniProt P05067); conditions: dose microM 5-20, time 48.0 hrs
Acetylcholinesterase [15] = target: T1, Acetylcholinesterase; test: Mixed type inhibition of human erythrocytes AChE assessed as decrease in Vmax using varying levels of acetylthiocholine iodide substrate by Lineweaver-Burk plot analysis; conditions: Erythrocyte
Acetylcholinesterase [16] = target: T1, Acetylcholinesterase; conditions: dose microM 5-20, time 48.0 hrs
[17] = Permeability of the compound in PBS/EtOH buffer (7:3) at 25 ug/ml after 18 hrs by PAMPA-BBB assay
Rattus norvegicus [18] = test: Cognitive enhancing effect in scopolamine-induced Wistar rat model of amnesia assessed as increase in spontaneous alteration at 5 to 10 mg/kg, po pretreated for 7 days followed by scopolamine challenge and measured after 30 mins by Y-maze test; format: functional, organism-based; conditions: dose mg/kg 5-10, time 7.0 day
Rattus norvegicus [19] = test: Cognitive enhancing effect in po dosed scopolamine-induced Wistar rat model of amnesia assessed as increase in spontaneous alteration pretreated for 7 days followed by scopolamine challenge and measured after 30 mins by Y-maze test; format: functional, organism-based; conditions: dose mg/kg 2.5-10, time 7.0 day
[20] = Half life in Wistar rat at 10 mg/kg, po measured up to 72 hrs by HPLC analysis; format: ADME, organism-based; conditions: in vivo
Rattus norvegicus [21] = test: Improvement in learning and spatial memory in icv infused amyloid beta (1 to 42)-induced rat model of Alzheimer's disease assessed as reduction in escape latency at 10 mg/kg, po administered daily for 7 days starting from 7 days post surgery and measured daily for 5 days by Morris water maze test; format: functional, organism-based; conditions: time 12.0 day
Cholinesterase = Cholinesterase (Homo sapiens, UniProt P06276); test: Inhibition of human serum BChE using butyrylthiocholine iodide as substrate preincubated for 10 mins followed by substrate addition by Ellman's method; format: cell-free
[22] = target: Amyloid-beta precursor protein (Homo sapiens) (UniProt P05067); test: Inhibition of amyloid beta (unknown origin) self aggregation assessed as roughness index at 10 uM after 10 days by atomic force microscopy; conditions: time 10.0 day
[23] = Acute toxicity in po dosed Wistar rat assessed as maximum tolerated dose by OCED guideline method; format: organism-based; conditions: in vivo

T1 sequence (P22303 whole entry): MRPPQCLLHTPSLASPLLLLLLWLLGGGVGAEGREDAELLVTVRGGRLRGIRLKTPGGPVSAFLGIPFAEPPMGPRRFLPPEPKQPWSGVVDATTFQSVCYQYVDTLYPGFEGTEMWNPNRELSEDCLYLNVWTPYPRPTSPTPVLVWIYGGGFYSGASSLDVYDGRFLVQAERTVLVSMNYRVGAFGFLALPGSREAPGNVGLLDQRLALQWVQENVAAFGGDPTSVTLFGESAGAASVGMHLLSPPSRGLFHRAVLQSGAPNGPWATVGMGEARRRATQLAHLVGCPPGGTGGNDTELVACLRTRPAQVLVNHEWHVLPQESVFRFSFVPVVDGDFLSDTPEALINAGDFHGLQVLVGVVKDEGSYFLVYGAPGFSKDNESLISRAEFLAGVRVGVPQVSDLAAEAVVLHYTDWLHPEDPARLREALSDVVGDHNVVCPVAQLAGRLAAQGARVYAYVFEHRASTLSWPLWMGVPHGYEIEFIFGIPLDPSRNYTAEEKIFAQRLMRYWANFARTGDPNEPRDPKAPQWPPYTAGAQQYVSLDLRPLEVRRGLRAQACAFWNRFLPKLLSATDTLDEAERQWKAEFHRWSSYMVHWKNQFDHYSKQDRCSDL
Sequence of Amyloid-beta precursor protein (Homo sapiens) (P05067 whole entry, the tested form may be a part): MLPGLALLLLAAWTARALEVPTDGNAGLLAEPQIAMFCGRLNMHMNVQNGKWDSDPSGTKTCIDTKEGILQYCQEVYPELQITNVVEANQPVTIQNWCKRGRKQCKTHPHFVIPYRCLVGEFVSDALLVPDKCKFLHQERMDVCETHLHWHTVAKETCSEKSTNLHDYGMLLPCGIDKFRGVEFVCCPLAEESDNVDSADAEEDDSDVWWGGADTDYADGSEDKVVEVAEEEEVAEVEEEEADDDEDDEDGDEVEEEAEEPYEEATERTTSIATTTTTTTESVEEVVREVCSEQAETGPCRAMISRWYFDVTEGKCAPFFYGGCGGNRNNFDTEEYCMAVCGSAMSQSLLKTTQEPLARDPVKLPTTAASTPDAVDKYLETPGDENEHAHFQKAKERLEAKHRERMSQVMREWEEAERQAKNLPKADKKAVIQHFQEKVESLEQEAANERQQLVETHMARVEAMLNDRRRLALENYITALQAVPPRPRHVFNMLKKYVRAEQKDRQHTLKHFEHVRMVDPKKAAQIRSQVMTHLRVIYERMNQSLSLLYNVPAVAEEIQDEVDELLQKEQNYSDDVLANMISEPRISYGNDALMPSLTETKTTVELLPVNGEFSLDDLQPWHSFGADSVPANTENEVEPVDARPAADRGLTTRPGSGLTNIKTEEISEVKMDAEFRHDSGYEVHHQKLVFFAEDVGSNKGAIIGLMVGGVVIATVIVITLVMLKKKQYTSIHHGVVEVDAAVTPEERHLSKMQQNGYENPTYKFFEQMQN
Sequence of Cholinesterase (P06276 whole entry): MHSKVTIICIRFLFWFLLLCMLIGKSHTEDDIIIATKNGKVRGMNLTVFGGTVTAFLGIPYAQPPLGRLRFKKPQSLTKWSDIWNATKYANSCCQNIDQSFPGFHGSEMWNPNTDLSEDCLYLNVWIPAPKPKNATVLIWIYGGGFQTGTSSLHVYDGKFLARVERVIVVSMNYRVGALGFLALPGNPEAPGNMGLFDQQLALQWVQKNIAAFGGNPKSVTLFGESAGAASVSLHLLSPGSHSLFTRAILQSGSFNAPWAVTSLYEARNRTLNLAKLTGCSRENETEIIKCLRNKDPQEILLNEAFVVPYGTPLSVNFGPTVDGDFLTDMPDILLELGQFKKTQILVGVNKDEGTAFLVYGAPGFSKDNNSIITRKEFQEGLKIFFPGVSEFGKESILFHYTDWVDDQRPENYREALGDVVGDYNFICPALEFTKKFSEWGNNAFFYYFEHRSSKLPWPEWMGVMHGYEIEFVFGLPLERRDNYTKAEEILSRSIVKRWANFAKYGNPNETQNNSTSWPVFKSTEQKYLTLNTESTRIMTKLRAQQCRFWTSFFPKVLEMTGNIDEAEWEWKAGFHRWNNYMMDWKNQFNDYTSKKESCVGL

Fc1ccc(-c2nnc(N3CCN(c4ccccn4)CC3)o2)c(F)c1
Activity (Rattus norvegicus [1]): Active | inhibition [2]: Active | Activity (Rattus norvegicus [3]): Active | Activity (SH-SY5Y): 69% | AUC(0-t) at 72 h [4]: 721 ng·h/mL | Cmax [5]: 49.8 ng/mL | Activity (Rattus norvegicus [6]): Active | Activity [7]: Non-Toxic | Activity [8]: 44.2 nm | Tmax [9]: 5.33 h | inhibition (Rattus norvegicus [10]): Active | Ki (Acetylcholinesterase [11]): 30 nM | MRT [12]: 18.4 h | inhibition (Acetylcholinesterase [13]): Active | Flu intensity [14]: 0.3 | inhibition (Acetylcholinesterase [15]): Active | Flu intensity (Acetylcholinesterase [16]): 0.33 | Papp at 18 h, 25 ug/ml [17]: 6.1 ×10⁻⁶ cm/s | Activity (Rattus norvegicus [18]): Active | Activity (Rattus norvegicus [19]): Dose-dependent effect | half-life [20]: 12.3 h | Activity (Rattus norvegicus [21]): Active | IC50 (Cholinesterase): 787 nM | Activity [22]: 1.84 nm | MTD [23]: 100 mg/kg
